One compound from patent publication US11725015B2, “Macrocyclic compound and uses thereof” (President and Fellows of Harvard College, priority 2017, dated 2023) can be followed below.

Common to all, as to format: in vivo
For test [1], the system named is CD31-positive vessel in the FaDu subcutaneous model. Nature of the test: Effect on CD31-positive vessel in the FaDu subcutaneous model in mice (Test Example 18). The conditions noted are these: five days after. The method, then: A human squamous cell carcinoma of the head and neck (SCCHN) cell line FaDu, which had been cultured in an RPMI-1640 medium containing 10% FBS, and penicillin-streptomycin (culture medium), was adjusted to a concentration of 5×10^7 cells/mL with culture medium to prepare a cell suspension. The cell suspension was inoculated in a volume of 100 μL into a subcutaneous part of a right flank of nude mice, 6 weeks of ages (CAnN.Cg-Foxnlnu/CrlCrlj, female, Charles River Laboratories Japan, Inc.). Ten days after cell inoculation, the mice were grouped such that averages of the tumor volumes were substantially equal among the groups. The experiment was conducted on groups each consisting of 6 mice. Each test compound was dissolved in DMSO and a solution was stored in the freezer before use. Immediately before the administration, the stock solution was diluted with saline. The test compound in saline was intravenously administered at 20 μg/kg, […]. Five days after the single administration, tumor samples were collected and fixed with IHC Zinc Fixative (BD Pharmingen) at 4° C. for 24 hours. Paraffin-embedded tissues were sectioned (3 μm), mounted on positively charged slides, and air-dried. Immunohistochemical staining of CD31 was conducted using Ventana autostainer model Discover XT (Roche Diagnostics) according to the manufacture's protocol. Sections were deparaffinized, conditioned and the antigens were retrieved with CC1 (Ventana Medical Systems). […] The number of blood vessels in the whole tumor was quantified by counting the CD31-positive objects using inform 2 software (PerkinElmer Inc.) Area of the tumor region was measured by assessing the hematoxylin-staining area using inform 2 software (PerkinElmer Inc.) The number of blood vessels was normalized by the area of the tumor region. […] The ratios of blood vessel number in the test compound-dosing groups compared to non-treat group were calculated with the below formula: Tumor vessel ratio=blood vessel number of the test compound-dosing group/blood vessel number of the non-treat group)

A further test relates to Tenascin-C. Put plainly: Effect on Tenascin-C in the FaDu subcutaneous model in mice. The conditions noted are these: Compound (1) 180 μg/kg + CTX 10 mg/kg on Day 1, five days after, compared with control tumors. The method, then:
A human squamous cell carcinoma of the head and neck (SCCHN) cell line FaDu, which had been cultured in an RPMI-1640 medium containing 10% FBS, and penicillin-streptomycin (culture medium), was adjusted to a concentration of 5×10^7 cells/mL with culture medium to prepare a cell suspension. The cell suspension was inoculated in a volume of 100 μL into a subcutaneous part of a right flank of nude mice, 6 weeks of ages (CAnN.Cg-Foxnlnu/CrlCrlj, female, Charles River Laboratories Japan, Inc.). Ten days after cell inoculation, the mice were grouped such that averages of the tumor volumes were substantially equal among the groups. The experiment was conducted on groups each consisting of 5 mice. Compound (1) was dissolved in DMSO and a solution was stored in the freezer before use. […] Five days after the single administration, tumor samples were collected and fixed with IHC Zinc Fixative (BD Pharmingen) at 4° C. for 24 hr. Paraffin-embedded tissues were sectioned (3 μm), mounted on positively charged slides, and air-dried. Sections were deparaffinized, conditioned and the antigens were retrieved using microwave with 1 mM EDTA at pH 6.0 for Tenascin-C. For EDA-fibronectin, the antigens retrieval procedure was not necessary. […]

In test [2] the test system is HT-1080 (human fibrosarcoma) xenograft. Nature of the test: Antitumor effects in HT-1080 soft tissue sarcoma xenograft model in mice as monotherapy. Conditions: 180 μg/kg intravenously on Day 1 and Day 8. On the procedure: A human fibrosarcoma cell line HT-1080, which had been cultured in an E-MEM containing 10% FBS, NEAA and antibiotics was adjusted to a concentration of 3×10^7 cells/mL with medium to prepare a cell suspension. The cell suspension was inoculated in a volume of 100 μL into a subcutaneous part of a right flank of athymic mice (CAnN.Cg-Foxnlnu/CrlCrlj, female, 6 weeks old, Charles River Japan Inc.). Six days after cell inoculation (Day 1), the length and the width of a tumor in each mouse were measured by using an electronic digital caliper (Mitutoyo Corporation), so as to calculate the volume of the tumor in accordance with the following calculation formula: Tumor volume (mm^3)=Longest diameter (mm)×Shortest diameter (mm)×Shortest diameter (mm)/2 Relative tumor volume (RTV)=Tumor volume (day X)/Tumor volume (the first day)
On the basis of TV, the mice were randomly grouped (Day 1). Each group was consisted in six mice. Compound (1) was dissolved in DMSO and a solution was stored in the freezer before use. Compound (1) (180 μg/kg) was diluted with saline and intravenously injected on Day 1 and Day 8.

As to `C=C1C[C@@H]2CC[C@@]34C[C@H]5O[C@H]6[C@@H](O3)[C@H]3O[C@H](CC[C@@H]3O[C@H]6C5O4)CC(=O)O[C@@H]3[C@@H](C)[C@@H]4O[C@@H]5C[C@]6(C[C@@H]7O[C@]8(C[C@H](C)[C@@H]9O[C@H](CN)[C@H](O)C[C@@H]9O8)C[C@H](C)[C@@H]7O6)O[C@@H]5C[C@@H]4O[C@H]3C[C@H]3O[C@@H](CC[C@@H]1O2)C[C@@H](C)C3=C` [Compound (1)], the “tumor blood vessel number” value in test [1] (single administration 20 μg/kg), in test [1] (single administration 60 μg/kg) and in test [1] (single administration 180 μg/kg) was “increased the tumor blood vessel number” throughout. In addition, in the test on Tenascin-C, the “expression level of Tenascin-C” value is recorded as “reduced”. Further, in test [2], the antitumor activity result is given as “tumor regression”.
